Consider 22 molecules from patent US9381191B2, “Imidazopyridine derivatives useful in treating diabetes” (METABRAIN RESEARCH, priority 2012, dated 2016).

One assay concerns INS-1 cells. Briefly: Stimulation test of insulin secretion by INS-1 cells. The format is cell-based. The following applies: Rattus norvegicus, INS1, 1 h, insulin secretion by INS-1 cells in response to glucose. As for the experimental part:
The different compounds were tested on an INS-1 beta-pancreatic line in order to evaluate their capability of potentializing the insulin secretion in response to glucose. Very briefly, the cells are cultivated in a culture medium, RPMI 1640 with 10 mM glucose containing 1 mM of sodium pyruvate, 50 μM of 2-mercaptoethanol, 2 mM of glutamine, 10 mM of HEPES, 100 IU/ml of penicillin, 100 μg/ml of streptomycin and 10% of inactivated fetal calf serum, as described by Asfari et al.. For the insulin secretion test, the INS-1 cells are sown and cultivated in 96-well plates. After 3 days of cultivation at 37° C. in a humid atmosphere (95% air/5% CO2), the medium is removed and the cells are incubated for 16 h in a medium containing 5 mM of glucose and 1% of inactivated fetal calf serum. On the day of the test, the cells are washed with a Krebs buffer (pH 7.4) containing 0.1% of bovine albumin and then pre-incubated for 30 min at 37° C. in this same buffer containing 2.8 mM of glucose. Finally, the cells are again washed with Krebs buffer and then incubated for 1 h in the buffer of the secretion test (Krebs, pH 7.4 containing 0.1% of bovine albumin and 3.5 mM of glucose and molecules to be evaluated). At the end of the test, the cell supernatant is recovered in order to measure therein the secreted insulin, by means of an ELISA kit using a rat anti-insulin antibody (ELISA Alpco Cat no. 80-INSRTH-E10). Each condition is tested in triplicate. The 3.5 mM glucose, the 10^−7M GLP-1 and the Forskoline 10^−7/IBMX 10^−5M mixtures are used as positive controls of the test. A compound stimulates the secretion of insulin if this factor is greater than or equal to 130% of the control for a given glucose dose.

The test system of the next assay is isolated rat hepatocytes. Description: Hepatic production of glucose, 3 h incubation. The format is cell-based, Wistar rat. To be noted: for activity at 50 µM / activity at 100 µM: Hepatocyte, rat hepatocytes; for activity at 50 µM: read-out: HGP % of ctrl @ 50 μM; for activity at 100 µM: read-out: HGP % of ctrl @ 100 μM. On the procedure:
The hepatocytes are isolated from Wistar rat liver having fasted for 24 h after perfusion of collagenase in the portal vein. 1) The freshly isolated hepatocytes are sown in 6-well plates coated with collagen and containing an adhesion medium (Williams Medium). After adhesion, the medium is replaced with RPMI 1640 medium without any glucose, containing hydrocortisone (7·10^−5M) for a duration from 16 to 18 h. The next day, the glucose hepatic production test is conducted in a Krebs medium for 3 h. The basal conditions are cells incubated with only Krebs, the stimulated conditions are the cells placed in Krebs+lactate+pyruvate, the produced conditions are the cells exposed to chemical compounds in a Krebs/lactate/pyruvate medium. In the case when the compounds are dissolved in DMSO, all the conditions of the tests are met in the presence of a final concentration of 0.1% DMSO. The positive control of the test is the mercaptopicolinate known for its inhibitory action on hepatic production of glucose via the phosphoenolpyruvate carboxykinase. For short term treatments, the compounds are incubated for 3 h. For long term treatments, the compounds are incubated for 20 h at the moment when the hepatocytes are cultivated in RPMI and then added during the hepatic production test for 3 h. At the end of the 3 hours of incubation, the supernatant is recovered for measurement of glucose with a colorimetric method using glucose oxidase. The cells are lysed with a 0.1% NaOH aqueous solution in order to measure the amount of protein with the Lowry method. The results are expressed in mmol of glucose per mg of protein.

In the case of `CCOC(=O)COCc1nc2ccccn2c1C#Cc1ccc(C)cc1` [Derivative 2, ethyl 2-((3-(p-tolylethynyl)-imidazo[1,2-a]pyridin-2-yl)-methoxy)acetate], in the assay on INS-1 cells (10 μM, read-out: HGP % of ctrl @ 10 μM), the insulin secretion, % of control at 10 µM was 127%. Also, in the assay on INS-1 cells (50 μM, read-out: HGP % of ctrl @ 50 μM), the insulin secretion, % of control at 50 µM was found to be 333%.
Turning to `O=C(O)c1cccc(OCc2nc3ccccn3c2C#Cc2ccccc2)c1` [Derivative 93, 3-((3-(phenylethynyl)imidazo[1,2-a]pyridin-2-yl)methoxy) benzoic acid], in the assay on isolated rat hepatocytes, the activity at 50 µM turned out to be 26% and the activity at 100 µM came out at 19%. Further, the “inhibition of hepatic production of glucose” value (from here on “inhibition”) in the assay with isolated rat hepatocytes (with two doses) is “strongest inhibitions”.
On the same counts, the results for `CCOC(=O)COCc1nc2ccccn2c1C#Cc1cccc(C(F)(F)F)c1` [Derivative 7, ethyl 2-((3-((3-(trifluoromethyl)-phenyl)ethynyl)imidazo[1,2-a]pyridin-2-yl)methoxy)acetate] are 55%, 45% and “strongest inhibitions”.
Turning to `O=C(O)COCc1nc2ccccn2c1C#Cc1cccc(OC(F)F)c1` [Derivative 35, 2-((3-((3-(difluoromethoxy)phenyl)-ethynyl)imidazo[1,2-a]pyridin-2-yl)methoxy)acetic acid], in the assay on isolated rat hepatocytes, the activity at 50 µM is 73% and the activity at 100 µM stood at 64%.
For `CCOC(=O)COCc1nc2ccccn2c1C#Cc1cccc(F)c1` [Derivative 23, ethyl 2-((3-((3-fluorophenyl)-ethynyl)imidazo[1,2-a]pyridin-2-yl)methoxy)acetate] the same measures were 95% and 73%.
With `COC(=O)c1ccccc1OCc1nc2ccccn2c1C#Cc1cccc(C(F)(F)F)c1` [Derivative 77, methyl 2-((3-((3-(trifluoromethyl)-phenyl)ethynyl)imidazo[1,2-a]pyridin-2-yl)methoxy)benzoate], in the assay on isolated rat hepatocytes, the activity at 50 µM was 87% and the activity at 100 µM worked out at 50%. Moreover, the “inhibition” value in the assay with isolated rat hepatocytes (dose of 100 μM) is reported as “strongest inhibitions”.
`O=C(O)CSCc1nc2ccc(Cl)cn2c1C#Cc1cccc(OC(F)(F)F)c1` [Derivative 119, 2-[[6-chloro-3-[2-[3-(trifluoro-methoxy)phenyl]ethynyl]imidazo [1,2-a]pyridin-2-yl]methyl-sulfanyl]acetic acid]: the activity at 50 µM in the assay with isolated rat hepatocytes stood at 73%.
Regarding `CN(C)CCNC(=O)c1ccccc1OCc1nc2ccccn2c1C#Cc1ccc(F)cc1` [Derivative 95, N-(2-(dimethylamino)ethyl)-2-((3-((4-fluorophenyl)ethynyl)-imidazo[1,2-a]pyridin-2-yl)methoxy)benzamide], in the assay with isolated rat hepatocytes, the activity at 50 µM stood at 65% and the activity at 100 µM is 62%.
For `O=C(O)c1ccc(OCc2nc3ccccn3c2C#Cc2cccc(C(F)(F)F)c2)cc1` [Derivative 90, 4-((3-((3-(trifluoromethyl)phenyl)-ethynyl)imidazo[1,2-a]pyridin-2-yl)methoxy)benzoic acid], in the assay on isolated rat hepatocytes, the activity at 50 µM was determined as 77% and the activity at 100 µM came to 27%. In addition, in the assay with isolated rat hepatocytes (dose of 100 μM), the “inhibition” value is given as “strongest inhibitions”.
With `O=C(NO)c1ccccc1OCc1nc2ccccn2c1C#Cc1ccc(F)cc1` [Derivative 96, 2-((3-((4-fluorophenyl)ethynyl)-imidazo[1,2-a]pyridin-2-yl)-methoxy)-N-hydroxybenzamide], in the assay with isolated rat hepatocytes, the activity at 50 µM was 81% and the activity at 100 µM was determined as 66%.
Take `O=C(O)CSCc1nc2ccccn2c1C#Cc1cccc(C(F)(F)F)c1` [Derivative 115, 2-[[3-[2-[3-(trifluoromethyl)phenyl]-ethynyl]imidazo[1,2-a]pyridin-2-yl]methylsulfanyl]acetic acid]: in the assay with isolated rat hepatocytes, the activity at 50 µM was 94% and the activity at 100 µM was 54%. For the same molecule, the “inhibition” value in the assay with isolated rat hepatocytes (dose of 100 μM) is “strongest inhibitions”.
In the case of `O=C(O)CSCc1nc2ccccn2c1C#Cc1cccc(OC(F)(F)F)c1` [Derivative 116, 2-[[3-[2-[3-(trifluoromethoxy)-phenyl]ethynyl]imidazo[1,2-a]pyridin-2-yl]methylsulfanyl] acetic acid], in the assay on isolated rat hepatocytes, the activity at 50 µM was found to be 88% and the activity at 100 µM was 64%.
On the same counts, the results for `CCOC(=O)COCc1nc2ccccn2c1C#Cc1ccc(OC)cc1` [Derivative 4, ethyl 2-((3-((4-methoxyphenyl)-ethynyl)-imidazo[1,2-a]pyridin-2-yl)-methoxy)acetate] are 81% and 74%.
For `CCOC(=O)CSCc1nc2ccccn2c1C#Cc1cccc(OC(F)(F)F)c1` [Derivative 109, ethyl 2-[[3-[2-[3-(trifluoromethoxy)-phenyl]ethynyl]imidazo[1,2-a]pyridin-2-yl]methylsulfanyl]acetate] the same measures were 80% and 61%.
For `COc1cccc(C#Cc2c(COCC(=O)O)nc3ccccn23)c1` [Derivative 30, 2-((3-((3-methoxyphenyl)ethynyl)-imidazo[1,2-a]pyridin-2-yl)methoxy)acetic acid] the same measures were 74% and 60%.
`CC1(C)COC(=O)C1OCc1nc2ccccn2c1C#Cc1cccc(C(F)(F)F)c1` (stereo not drawn) [Derivative 99, 4,4-dimethyl-3-[[3-[2-[3-(trifluoromethyl)phenyl]ethynyl]imidazo[1,2-a]pyridin-2-yl]methoxy]-tetrahydrofuran-2-one]: in the assay with isolated rat hepatocytes, the activity at 50 µM came to 85% and the activity at 100 µM is 68%.
As for `CCOC(=O)CSCc1nc2ccccn2c1C#Cc1cccc(C(F)(F)F)c1` [Derivative 108, ethyl 2-[[3-[2-[3-(trifluoromethyl)-phenyl]ethynyl]imidazo[1,2-a]pyridin-2-yl]methylsulfanyl]acetate], in the assay on isolated rat hepatocytes, the activity at 50 µM was determined as 89% and the activity at 100 µM was determined as 64%.
As to `O=C(O)COCc1nc2ccccn2c1C#Cc1cccc(OC(F)(F)F)c1` [Derivative 29, 2-((3-((3-(trifluoromethoxy)phenyl)-ethynyl)imidazo[1,2-a]pyridin-2-yl)methoxy)acetic acid], in the assay on isolated rat hepatocytes, the activity at 50 µM was 63% and the activity at 100 µM was 40%. Moreover, the “inhibition” value in the assay on isolated rat hepatocytes (dose of 100 μM) is on record as “strongest inhibitions”.
Turning to `O=C(CSCc1nc2ccccn2c1C#Cc1cccc(OC(F)(F)F)c1)Nc1cccnc1` [Derivative 126, N-(3-pyridyl)-2-[[3-[2-[3-(trifluoromethoxy)phenyl]ethynyl]imidazo[1,2-a]pyridin-2-yl]methylsulfanyl]acetamide], in the assay with isolated rat hepatocytes, the activity at 50 µM stood at 72% and the activity at 100 µM was found to be 68%.
With `O=C([O-])COCc1nc2ccccn2c1C#Cc1cccc(C(F)(F)F)c1.[Na+]` [Derivative 51, sodium 2-((3-((3-(trifluoromethyl)-phenyl)ethynyl)imidazo[1,2-a]pyridin-2-yl)methoxy)acetate], in the assay on isolated rat hepatocytes, the activity at 50 µM was 61% and the activity at 100 µM is 45%. In the assay with isolated rat hepatocytes (dose of 100 μM), the “inhibition” value is listed as “strongest inhibitions”.
On the same counts, the results for `O=C(O)c1ccccc1OCc1nc2ccccn2c1C#Cc1cccc(C(F)(F)F)c1` [Derivative 89, 2-((3-((3-(trifluoromethyl)phenyl)-ethynyl)imidazo[1,2-a]pyridin-2-yl)methoxy)benzoic acid] are 78%, 33% and “strongest inhibitions”.
In the case of `CCOC(=O)COCc1nc2ccccn2c1C#Cc1ccc(F)c(F)c1` [Derivative 10, ethyl 2-((3-((3,4-difluorophenyl)-ethynyl)imidazo[1,2-a]pyridin-2-yl)methoxy)acetate], in the assay on isolated rat hepatocytes, the activity at 50 µM was found to be 86% and the activity at 100 µM was 71%.
